Measurements as given in ChEMBL document CHEMBL5649166, “RIP3 induces apoptosis independent of pronecrotic kinase activity” (Mol Cell, 2014).

Key:
[1] = target: T1, Serine/threonine-protein kinase STK11 (Homo sapiens) (UniProt Q15831); test: Inhibition of human LKB1 using LSNLYHQGKFLQTFCGSPLYRRR as substrate at 1 uM in presence of 32P-ATP by Hotspot assay relative to control; values are per cent of control
T1 sequence (whole entry): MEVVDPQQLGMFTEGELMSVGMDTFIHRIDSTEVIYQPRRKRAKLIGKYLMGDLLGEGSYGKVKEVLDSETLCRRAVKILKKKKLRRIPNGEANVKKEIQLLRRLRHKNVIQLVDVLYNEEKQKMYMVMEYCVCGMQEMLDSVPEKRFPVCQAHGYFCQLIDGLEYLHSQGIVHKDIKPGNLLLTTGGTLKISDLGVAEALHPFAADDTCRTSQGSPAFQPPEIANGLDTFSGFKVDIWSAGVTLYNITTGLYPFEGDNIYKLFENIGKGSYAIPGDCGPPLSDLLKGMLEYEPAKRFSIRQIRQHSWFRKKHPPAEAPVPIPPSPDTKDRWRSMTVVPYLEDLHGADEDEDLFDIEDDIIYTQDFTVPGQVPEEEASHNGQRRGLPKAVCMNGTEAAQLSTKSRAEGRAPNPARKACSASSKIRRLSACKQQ

[2] = target: T2, Tyrosine-protein kinase ZAP-70 (Homo sapiens) (UniProt P43403); test: Inhibition of human ZAP70 using poly[Glu:Tyr] (4:1) as substrate at 1 uM in presence of 32P-ATP by Hotspot assay relative to control; values are per cent of control
T2 sequence (whole entry): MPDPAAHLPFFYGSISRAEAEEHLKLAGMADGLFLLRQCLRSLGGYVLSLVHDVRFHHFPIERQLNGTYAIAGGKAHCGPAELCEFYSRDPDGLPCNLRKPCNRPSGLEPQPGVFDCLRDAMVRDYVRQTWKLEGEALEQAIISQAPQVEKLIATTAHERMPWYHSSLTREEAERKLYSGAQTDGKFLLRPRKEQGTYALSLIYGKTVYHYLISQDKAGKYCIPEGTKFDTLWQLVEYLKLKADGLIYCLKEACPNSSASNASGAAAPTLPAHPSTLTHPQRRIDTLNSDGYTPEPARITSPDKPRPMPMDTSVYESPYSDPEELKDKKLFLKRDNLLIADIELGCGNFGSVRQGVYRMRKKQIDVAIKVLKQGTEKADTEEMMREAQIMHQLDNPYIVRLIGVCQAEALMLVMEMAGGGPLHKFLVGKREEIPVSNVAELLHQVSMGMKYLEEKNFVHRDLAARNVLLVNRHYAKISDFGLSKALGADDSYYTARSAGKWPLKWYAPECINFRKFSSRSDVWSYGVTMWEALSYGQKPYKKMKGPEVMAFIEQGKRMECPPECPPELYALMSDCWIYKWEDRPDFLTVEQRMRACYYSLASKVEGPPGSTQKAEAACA

[3] = target: T3, Calcium/calmodulin-dependent protein kinase type IV (Homo sapiens) (UniProt Q16566); test: Residual activity of human CAMK4 using KKLNRTLSFAEPG as substrate at 1 uM in presence of 32P-ATP by Hotspot assay relative to control
T3 sequence (whole entry): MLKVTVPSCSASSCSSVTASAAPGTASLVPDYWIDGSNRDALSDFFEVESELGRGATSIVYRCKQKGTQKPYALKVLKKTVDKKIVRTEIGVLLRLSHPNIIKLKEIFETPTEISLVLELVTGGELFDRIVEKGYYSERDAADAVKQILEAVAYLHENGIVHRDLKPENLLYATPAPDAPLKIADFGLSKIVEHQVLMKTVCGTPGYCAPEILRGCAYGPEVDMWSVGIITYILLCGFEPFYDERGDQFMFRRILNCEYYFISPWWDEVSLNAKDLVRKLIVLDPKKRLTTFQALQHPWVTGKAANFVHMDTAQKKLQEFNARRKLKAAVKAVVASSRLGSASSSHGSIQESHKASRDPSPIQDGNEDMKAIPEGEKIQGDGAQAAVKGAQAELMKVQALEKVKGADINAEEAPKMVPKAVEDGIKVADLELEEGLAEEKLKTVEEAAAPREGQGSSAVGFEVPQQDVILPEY

[4] = target: T4, Serine/threonine-protein kinase BRSK2 (Homo sapiens) (UniProt Q8IWQ3); test: Inhibition of human BRSK2 using KKLNRTLSFAEPG as substrate at 1 uM in presence of 32P-ATP by Hotspot assay relative to control; values are per cent of control
T4 sequence (whole entry): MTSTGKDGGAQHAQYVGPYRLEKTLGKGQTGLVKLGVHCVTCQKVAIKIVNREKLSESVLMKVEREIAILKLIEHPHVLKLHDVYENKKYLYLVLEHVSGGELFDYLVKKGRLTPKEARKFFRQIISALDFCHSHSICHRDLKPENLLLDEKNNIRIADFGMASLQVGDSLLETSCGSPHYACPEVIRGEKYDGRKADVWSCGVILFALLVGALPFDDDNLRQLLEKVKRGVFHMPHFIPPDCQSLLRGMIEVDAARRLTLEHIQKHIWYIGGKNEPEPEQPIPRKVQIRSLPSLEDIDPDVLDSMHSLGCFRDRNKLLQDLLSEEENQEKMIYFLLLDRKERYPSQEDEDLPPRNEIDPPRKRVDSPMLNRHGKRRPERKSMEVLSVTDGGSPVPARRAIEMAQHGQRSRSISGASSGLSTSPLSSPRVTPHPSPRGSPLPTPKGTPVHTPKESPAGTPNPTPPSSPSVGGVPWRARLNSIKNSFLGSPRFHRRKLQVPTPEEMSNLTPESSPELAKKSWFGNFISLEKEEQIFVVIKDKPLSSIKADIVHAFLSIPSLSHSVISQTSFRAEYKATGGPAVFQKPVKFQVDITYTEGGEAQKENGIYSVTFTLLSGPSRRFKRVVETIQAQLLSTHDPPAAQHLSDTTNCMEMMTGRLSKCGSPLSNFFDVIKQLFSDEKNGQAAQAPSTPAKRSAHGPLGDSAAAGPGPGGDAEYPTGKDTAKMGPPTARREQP

[5] = target: Tyrosine-protein kinase Blk (Homo sapiens) (UniProt P51451); test: Inhibition of human BLK using poly[Glu:Tyr] (4:1) as substrate at 1 uM in presence of 32P-ATP by Hotspot assay relative to control; values are per cent of control
Chain of Tyrosine-protein kinase Blk (Homo sapiens) (P51451 2-505 limits assumed): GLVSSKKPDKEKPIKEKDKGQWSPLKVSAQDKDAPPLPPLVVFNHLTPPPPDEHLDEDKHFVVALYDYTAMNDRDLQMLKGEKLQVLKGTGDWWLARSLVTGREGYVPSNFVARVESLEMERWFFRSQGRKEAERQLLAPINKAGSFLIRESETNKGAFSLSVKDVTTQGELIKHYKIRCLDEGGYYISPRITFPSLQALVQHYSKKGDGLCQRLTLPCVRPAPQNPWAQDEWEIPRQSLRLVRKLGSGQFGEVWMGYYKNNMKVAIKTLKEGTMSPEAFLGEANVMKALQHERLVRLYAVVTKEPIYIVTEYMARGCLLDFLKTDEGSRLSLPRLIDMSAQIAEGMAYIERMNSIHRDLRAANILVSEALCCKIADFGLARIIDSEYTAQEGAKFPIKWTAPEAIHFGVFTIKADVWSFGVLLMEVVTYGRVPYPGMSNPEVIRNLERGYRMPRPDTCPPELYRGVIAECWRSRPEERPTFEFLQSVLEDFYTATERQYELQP

[6] = target: Mitogen-activated protein kinase 8 (Homo sapiens) (UniProt P45983); test: Inhibition of human JNK1 using ATF2 as substrate at 1 uM in presence of 32P-ATP by Hotspot assay relative to control; values are per cent of control
Chain of Mitogen-activated protein kinase 8 (Homo sapiens) (P45983 whole entry): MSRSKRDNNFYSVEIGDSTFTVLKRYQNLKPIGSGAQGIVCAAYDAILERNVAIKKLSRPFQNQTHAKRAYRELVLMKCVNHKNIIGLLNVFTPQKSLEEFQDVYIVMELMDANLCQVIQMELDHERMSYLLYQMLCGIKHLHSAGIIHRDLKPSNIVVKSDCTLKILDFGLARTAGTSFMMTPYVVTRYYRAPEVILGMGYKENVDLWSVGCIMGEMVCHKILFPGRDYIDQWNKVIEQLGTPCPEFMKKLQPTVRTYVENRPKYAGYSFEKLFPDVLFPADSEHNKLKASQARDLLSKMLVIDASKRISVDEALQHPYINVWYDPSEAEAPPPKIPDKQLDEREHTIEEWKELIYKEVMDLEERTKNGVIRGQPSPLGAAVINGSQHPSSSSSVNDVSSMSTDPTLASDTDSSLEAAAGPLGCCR

| SMILES | residual activity [1] | residual activity [2] | residual activity [3] | residual activity [4] | residual activity [5] | residual activity [6] |
| --- | --- | --- | --- | --- | --- | --- |
| Cc1cc(-c2cnc(N)c3c(-c4ccc5scnc5c4)csc23)n(C)n1 | 96.8% | 89.8% | 88.6% | 89% | 39.3% | 91.6% |
| CNC(=O)c1ccc2c(c1)ncn2-c1ccc(CC(=O)OC(C)(C)C)cc1 | 99% | 102% | 91.8% | 92% | 73.9% | 103% |
| CC(C)S(=O)(=O)c1ccc2nccc(Nc3ccc4scnc4c3)c2c1 | 59% | 102% | 91% | 99.4% | 62.8% | 96.8% |
